ChEMBL document CHEMBL4616702 (ACS Med Chem Lett, 2020)

What was measured:
[1] = Half life in mouse liver microsomes in presence of NADPH by LC/MS/MS method; assay type: ADME, Microsome; details: for half-life: liver microsomes
[2] = Cmax in Balb/c mouse at 10 mg/kg, po; assay type: ADME, organism-based; parameters: dose 10 mg/kg, route oral; details: in vivo
[3] = AUC (0 to 24 hrs) in Balb/c mouse at 10 mg/kg, po; assay type: ADME, organism-based; parameters: dose 10 mg/kg, time < 24 hr, route oral; details: in vivo
[4] = Half life in human liver microsomes in presence of NADPH by LC/MS/MS method; assay type: ADME, Microsome
[5] = Half life in rat liver microsomes in presence of NADPH by LC/MS/MS metho; assay type: ADME, Microsome; details: for half-life: liver microsomes; for t1/2: microsomes
[6] = Drug concentration in Balb/c mouse at 10 mg/kg, po measured upto 24 hrs; assay type: ADME, organism-based; details: in vivo, read-out: Drug uptake

C[C@@H]1C[C@H](C(=O)N2CC[C@@]3(S(=O)(=O)c4ccc(F)cc4)c4ccc(C(F)(C(F)(F)F)C(F)(F)F)cc4CC[C@@H]23)CC[C@H]1C(=O)O
half-life [1]: > 2 h | Cmax [2]: 9 µM | AUC(0-t) at 24 h [3]: 134 µM·h | half-life [4]: > 2 h | half-life [5]: 1.22 h | concentration at 24 h [6]: 2.2 µM

C[C@H]1C[C@@H](C(=O)N2CC[C@@]3(S(=O)(=O)c4ccc(F)cc4)c4ccc(C(F)(C(F)(F)F)C(F)(F)F)cc4CC[C@@H]23)CCS1(=O)=O (stereo in doubt; 4)
t1/2 ([1]; microsomes): 1.63 h | t1/2 [5]: 0.55 h

C[C@@H]1C[C@H](C(=O)O)CC[C@H]1C(=O)N1CC[C@@]2(S(=O)(=O)c3ccc(F)cc3)c3ccc(C(F)(C(F)(F)F)C(F)(F)F)cc3CC[C@@H]12
half-life [1]: > 2 h | half-life [4]: > 2 h | half-life [5]: > 2 h

C[C@H]1C[C@H](C(=O)N2CC[C@@]3(S(=O)(=O)c4cccc(F)c4)c4ccc(C(F)(C(F)(F)F)C(F)(F)F)cc4CC[C@@H]23)CC[C@H]1C(=O)O
half-life [1]: > 2 h | Cmax [2]: 12 µM | AUC(0-t) at 24 h [3]: 72 µM·h | half-life [4]: > 2 h | half-life [5]: > 2 h | concentration at 24 h [6]: 0.78 µM

O=C(O)[C@H]1CC[C@H](C(=O)N2CC[C@@]3(S(=O)(=O)c4ccc(F)cc4)c4ccc(C(F)(C(F)(F)F)C(F)(F)F)cc4CC[C@@H]23)CC1
half-life [1]: > 2 h | half-life [4]: > 2 h | half-life [5]: > 2 h

C[C@H]1C[C@@H](C(=O)N2CC[C@@]3(S(=O)(=O)c4ccc(F)cc4)c4ccc(C(F)(C(F)(F)F)C(F)(F)F)cc4CC[C@@H]23)CCS1(=O)=O (stereo in doubt; 3)
half-life [1]: > 2 h | half-life [4]: > 2 h | t1/2 [5]: > 2 h

O=C(N1CC[C@@]2(S(=O)(=O)c3ccc(F)cc3)c3ccc(C(F)(C(F)(F)F)C(F)(F)F)cc3CC[C@@H]12)C1(O)CCS(=O)(=O)CC1
half-life [1]: > 2 h | half-life [4]: > 2 h | half-life [5]: > 2 h

C[C@H]1C[C@H](C(=O)O)CC[C@H]1C(=O)N1CC[C@@]2(S(=O)(=O)c3cccc(F)c3)c3ccc(C(F)(C(F)(F)F)C(F)(F)F)cc3CC[C@@H]12
half-life [1]: > 2 h | half-life [4]: > 2 h | half-life [5]: 1.78 h
